Calls of active or inactive are those of the source.
Key:
HEK293 [1] = assay: cells; format: functional, cell-based; conditions: Homo sapiens
[2] = target: T1, Nuclear receptor subfamily 0 group B member 1 (Homo sapiens, UniProt P51843); assay: Luminescence-based cell-based high throughput dose response assay for inhibitors of the orphan nuclear receptor subfamily 0, group B, member 1 (DAX1; NR0B1). [Related pubchem assays (depositor defined):AID504766, AID504790]; format: functional
T1 sequence (P51843 whole entry): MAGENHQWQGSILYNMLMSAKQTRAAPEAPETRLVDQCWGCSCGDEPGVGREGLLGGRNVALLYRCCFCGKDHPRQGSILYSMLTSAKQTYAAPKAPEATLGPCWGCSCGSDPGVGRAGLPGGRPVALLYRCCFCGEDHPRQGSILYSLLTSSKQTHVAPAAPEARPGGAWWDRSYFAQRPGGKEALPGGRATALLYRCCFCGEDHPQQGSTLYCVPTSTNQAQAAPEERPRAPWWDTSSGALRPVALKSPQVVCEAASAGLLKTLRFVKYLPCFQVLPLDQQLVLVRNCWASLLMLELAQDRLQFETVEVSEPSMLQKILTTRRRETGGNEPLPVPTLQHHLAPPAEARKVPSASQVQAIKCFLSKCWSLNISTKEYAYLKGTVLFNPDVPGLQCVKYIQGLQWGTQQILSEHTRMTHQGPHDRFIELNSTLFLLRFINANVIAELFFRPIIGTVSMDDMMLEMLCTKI

[3] = Luminescence Cell-Based Dose Response HTS to Identify Activators of Luciferase Translation or Activity in H4 […] Cells. [Related pubchem assays: 1829 (Project Summary), 1814 (Primary HTS)]; format: functional
[4] = Luminescence Cell-Based Dose Confirmation HTS to Identify Activators of 5'UTR Stem-Loop Driven Alpha-Synuclein mRNA Translation in H4 Neuroglioblastoma Cells. [Related pubchem assays: 1829 (Project Summary), 1814 (Primary HTS)]; format: functional
H4 = assay: Luminescence Cell-Based Dose Response HTS to Identify Activators of 5'UTR Stem-Loop Driven Prion Protein mRNA Translation in H4 Neuroglioblastoma Cells. [Related pubchem assays: 1829 (Project Summary), 1814 (Primary HTS)]; format: functional; conditions: Homo sapiens
Jurkat = assay: antigen receptor-induced NF-kB inhibitors, dose response, Jurkat, luciferase reporter, luminescence, B- and T-cell (AID 489004); format: functional, cell-based; conditions: Homo sapiens;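 further: NF-kB luciferase reporter Jurkat cells stimulated with PMA plus ionomycin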
[5] = cytotoxicity in HEK-293T NF-kB-Luc cells, dose response, cytotoxicity control for B/T-cell NF-kB inhibitor project, cell-based, uHTS hits (AID 489019); format: functional;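 further: IC50 reflects cytotoxicity as loss of cell viability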
Protein RecA = target: T2, Protein RecA (Mycobacterium tuberculosis, UniProt P9WHJ3); assay: Fluorescence Cell-Free Homogeneous Dose Retest to Identify Inhibitors of RecA-Intein Splicing Activity. [Related pubchem assays (depositor defined):AID2097, AID2223, AID489010, AID492950]; format: functional
T2 sequence (P9WHJ3 whole entry): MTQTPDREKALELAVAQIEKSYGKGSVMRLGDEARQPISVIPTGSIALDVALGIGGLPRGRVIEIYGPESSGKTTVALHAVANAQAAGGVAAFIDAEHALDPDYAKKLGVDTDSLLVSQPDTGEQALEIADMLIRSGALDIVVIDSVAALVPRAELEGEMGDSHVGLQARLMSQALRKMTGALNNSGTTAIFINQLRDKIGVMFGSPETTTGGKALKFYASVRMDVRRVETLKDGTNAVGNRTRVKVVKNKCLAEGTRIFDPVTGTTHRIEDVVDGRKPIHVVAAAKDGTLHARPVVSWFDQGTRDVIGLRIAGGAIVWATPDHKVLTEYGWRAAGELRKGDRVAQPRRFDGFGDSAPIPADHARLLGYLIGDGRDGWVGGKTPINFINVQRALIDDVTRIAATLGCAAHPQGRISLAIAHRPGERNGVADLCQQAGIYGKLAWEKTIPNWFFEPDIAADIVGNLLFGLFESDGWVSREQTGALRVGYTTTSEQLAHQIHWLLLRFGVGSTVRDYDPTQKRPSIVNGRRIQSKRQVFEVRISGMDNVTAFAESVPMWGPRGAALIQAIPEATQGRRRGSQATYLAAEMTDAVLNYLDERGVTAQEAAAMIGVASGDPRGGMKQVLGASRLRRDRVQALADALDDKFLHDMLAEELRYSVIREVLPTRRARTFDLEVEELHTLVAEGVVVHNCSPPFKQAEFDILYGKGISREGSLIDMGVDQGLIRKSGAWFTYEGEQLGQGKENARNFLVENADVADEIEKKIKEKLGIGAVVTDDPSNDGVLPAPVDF

[6] = target: T3, Replicative DNA helicase DnaB (Mycobacterium tuberculosis, UniProt P9WMR3); assay: DnaB intein splicing inhibitors, dose response, biochemical, cell-free fluorescence (AID 449749); format: functional
T3 sequence (P9WMR3 whole entry): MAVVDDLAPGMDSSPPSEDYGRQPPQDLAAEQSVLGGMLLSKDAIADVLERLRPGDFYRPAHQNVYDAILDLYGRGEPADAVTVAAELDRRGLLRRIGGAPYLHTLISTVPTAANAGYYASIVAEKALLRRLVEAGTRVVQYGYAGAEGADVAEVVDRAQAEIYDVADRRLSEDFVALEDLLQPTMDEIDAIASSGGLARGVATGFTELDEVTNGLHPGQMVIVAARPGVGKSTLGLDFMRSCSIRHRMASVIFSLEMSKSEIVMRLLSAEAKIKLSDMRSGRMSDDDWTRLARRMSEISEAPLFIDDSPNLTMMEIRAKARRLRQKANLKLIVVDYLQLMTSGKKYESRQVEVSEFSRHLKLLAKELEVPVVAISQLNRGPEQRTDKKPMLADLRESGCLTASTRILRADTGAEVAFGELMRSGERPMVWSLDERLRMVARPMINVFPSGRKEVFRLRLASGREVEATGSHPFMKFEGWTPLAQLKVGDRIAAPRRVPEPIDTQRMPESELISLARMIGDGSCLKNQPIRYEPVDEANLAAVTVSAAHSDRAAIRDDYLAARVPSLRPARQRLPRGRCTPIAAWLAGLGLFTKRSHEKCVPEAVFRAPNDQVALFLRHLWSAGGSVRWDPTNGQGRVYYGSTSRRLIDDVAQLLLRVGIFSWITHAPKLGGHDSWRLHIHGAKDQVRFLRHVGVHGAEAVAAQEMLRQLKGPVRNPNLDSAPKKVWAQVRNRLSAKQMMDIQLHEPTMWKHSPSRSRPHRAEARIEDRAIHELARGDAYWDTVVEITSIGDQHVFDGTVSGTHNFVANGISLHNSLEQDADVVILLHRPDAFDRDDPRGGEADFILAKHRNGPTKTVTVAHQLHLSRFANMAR

[7] = microbe, parasite or virus in culture; format: functional; conditions: Mycobacterium tuberculosis
[8] = target: T4, Heat shock factor protein 1 (Mus musculus, UniProt P38532); assay: inhibition of MG132-induced HSE-luciferase signal, confirmation, cell-based, NIH3T3, luminescence, dose retest (AID 2382); format: functional;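 further: NIH3T3 fibroblasts with HSF1-driven luciferase reporter stressed by proteasome inhibitor MG132; luminescence from HSF1-driven luciferase expression after 8 hours of MG132 stress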
T4 sequence (P38532 whole entry): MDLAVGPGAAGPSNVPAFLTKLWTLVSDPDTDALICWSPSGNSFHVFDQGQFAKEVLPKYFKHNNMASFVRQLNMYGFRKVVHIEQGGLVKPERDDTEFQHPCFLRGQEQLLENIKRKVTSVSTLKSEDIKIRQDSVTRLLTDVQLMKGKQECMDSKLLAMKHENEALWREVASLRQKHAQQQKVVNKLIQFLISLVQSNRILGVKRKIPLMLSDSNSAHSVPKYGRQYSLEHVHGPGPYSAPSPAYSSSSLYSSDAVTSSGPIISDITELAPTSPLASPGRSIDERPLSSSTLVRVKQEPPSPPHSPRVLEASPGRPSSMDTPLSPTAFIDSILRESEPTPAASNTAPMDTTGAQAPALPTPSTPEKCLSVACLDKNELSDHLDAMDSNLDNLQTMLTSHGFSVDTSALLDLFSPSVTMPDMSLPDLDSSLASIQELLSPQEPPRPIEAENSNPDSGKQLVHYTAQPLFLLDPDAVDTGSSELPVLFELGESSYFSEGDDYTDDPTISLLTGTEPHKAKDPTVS

[9] = Shn3 3'UTR reporter inhibitors, dose response, cell-based, Clone20 osteoblasts, firefly luciferase, cherry-picked (AID 624132); format: functional;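 further: firefly luciferase luminescence from reporter carrying the Shn3 3'UTR in osteoblasts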
[10] = HepG2 cell cytotoxicity, dose response, cytotoxicity control for Shn3 inhibitor project, CellTiter-Glo, cherry-picked (AID 624134); format: functional, cell-based
[11] = control 3'UTR Renilla luciferase suppression, dose response, counter-screen for Shn3 inhibitor project, cell-based, Clone20-Shn3RL, cherry-picked (AID 624133); format: functional
HEK293 [12] = assay: inhibitors of LMP1-driven NF-kB reporter, dose response, cell-based, HEK293, luciferase, cherry-pick (AID 588343); format: functional; conditions: Homo sapiens
Vero [13] = assay: cells; format: functional; conditions: Chlorocebus sabaeus
Vero [14] = assay: cells; format: functional, cell-based; conditions: Chlorocebus sabaeus
Beta-galactosidase = Beta-galactosidase (Escherichia coli, UniProt Q8VNN2); assay: PubChem AID 485352; format: functional
Beta-galactosidase, sequence (Q8VNN2 whole entry): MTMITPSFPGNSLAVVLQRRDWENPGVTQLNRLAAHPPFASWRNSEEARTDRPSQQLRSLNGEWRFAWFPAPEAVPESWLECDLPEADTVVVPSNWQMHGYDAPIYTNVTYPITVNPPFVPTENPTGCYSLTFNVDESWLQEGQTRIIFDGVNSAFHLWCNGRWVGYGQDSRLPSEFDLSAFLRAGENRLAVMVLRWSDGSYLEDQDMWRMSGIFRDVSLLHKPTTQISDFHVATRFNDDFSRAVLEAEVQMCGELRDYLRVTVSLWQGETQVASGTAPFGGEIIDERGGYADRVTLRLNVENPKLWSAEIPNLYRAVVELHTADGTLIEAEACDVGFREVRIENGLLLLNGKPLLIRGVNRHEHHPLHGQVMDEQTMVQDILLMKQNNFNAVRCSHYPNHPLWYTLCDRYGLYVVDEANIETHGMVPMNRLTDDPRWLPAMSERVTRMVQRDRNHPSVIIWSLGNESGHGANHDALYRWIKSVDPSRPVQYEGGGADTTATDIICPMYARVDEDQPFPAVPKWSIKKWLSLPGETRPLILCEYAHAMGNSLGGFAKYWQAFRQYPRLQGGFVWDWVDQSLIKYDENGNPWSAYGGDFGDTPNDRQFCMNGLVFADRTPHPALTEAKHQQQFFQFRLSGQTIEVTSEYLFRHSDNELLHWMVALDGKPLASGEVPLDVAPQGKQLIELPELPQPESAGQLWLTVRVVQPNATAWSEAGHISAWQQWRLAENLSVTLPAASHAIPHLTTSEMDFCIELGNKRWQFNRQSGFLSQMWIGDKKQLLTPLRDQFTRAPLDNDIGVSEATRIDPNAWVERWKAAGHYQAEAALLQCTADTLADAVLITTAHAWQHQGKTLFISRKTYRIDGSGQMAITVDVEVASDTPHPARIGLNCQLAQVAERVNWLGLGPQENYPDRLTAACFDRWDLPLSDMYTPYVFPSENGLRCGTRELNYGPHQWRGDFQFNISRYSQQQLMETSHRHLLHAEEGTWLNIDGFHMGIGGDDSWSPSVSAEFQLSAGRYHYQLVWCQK

[15] = target: T5, Type-1 angiotensin II receptor (Homo sapiens, UniProt P30556); assay: AT1 receptor antagonists, dose response, selectivity assay for APJ receptor antagonist project, cell-based, uHTS hits (AID 463214); format: functional;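 further: antagonist potency against angiotensin II stimulated AT1 response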
T5 sequence (P30556 whole entry): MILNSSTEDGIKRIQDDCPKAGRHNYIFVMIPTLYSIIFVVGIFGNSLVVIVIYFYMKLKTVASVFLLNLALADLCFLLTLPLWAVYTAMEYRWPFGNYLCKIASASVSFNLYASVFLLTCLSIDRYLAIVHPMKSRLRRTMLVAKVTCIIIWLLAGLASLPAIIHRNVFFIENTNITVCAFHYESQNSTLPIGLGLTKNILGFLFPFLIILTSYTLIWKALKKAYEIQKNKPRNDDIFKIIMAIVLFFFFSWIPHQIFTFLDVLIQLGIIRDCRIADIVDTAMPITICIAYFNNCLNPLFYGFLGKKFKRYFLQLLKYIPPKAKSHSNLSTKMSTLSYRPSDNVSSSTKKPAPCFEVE

[16] = target: T6, High affinity choline transporter 1 (Homo sapiens, UniProt Q9GZV3); assay: CHT inhibitors, dose response, cell-based, 5-point CRC, membrane potential dye (AID 504840); format: functional
T6 sequence (Q9GZV3 whole entry): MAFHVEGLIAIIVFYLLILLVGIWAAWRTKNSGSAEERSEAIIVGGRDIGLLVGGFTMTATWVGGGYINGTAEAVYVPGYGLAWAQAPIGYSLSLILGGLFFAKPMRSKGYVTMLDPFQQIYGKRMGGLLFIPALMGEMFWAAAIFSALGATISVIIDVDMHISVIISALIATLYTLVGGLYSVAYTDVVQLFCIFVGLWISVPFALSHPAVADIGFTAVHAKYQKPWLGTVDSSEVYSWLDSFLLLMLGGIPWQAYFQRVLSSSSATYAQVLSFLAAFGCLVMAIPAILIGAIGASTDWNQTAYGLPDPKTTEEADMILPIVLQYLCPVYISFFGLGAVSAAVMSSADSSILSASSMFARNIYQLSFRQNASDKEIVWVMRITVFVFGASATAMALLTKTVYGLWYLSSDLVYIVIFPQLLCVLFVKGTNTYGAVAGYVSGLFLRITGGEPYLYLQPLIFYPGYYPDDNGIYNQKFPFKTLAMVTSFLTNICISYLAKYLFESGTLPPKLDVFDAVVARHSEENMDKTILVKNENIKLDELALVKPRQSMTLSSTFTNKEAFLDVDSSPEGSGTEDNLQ

CN1CCN(C(=S)c2ccc(-c3cccc([N+](=O)[O-])c3)o2)CC1
IC50 (HEK293 [1]): > 67.6 µM (inactive)
IC50 [2]: > 67.6 µM (inactive)
EC50 [3]: 0.117 µM (active)
EC50 [4]: 0.141 µM (active)
EC50 (H4): 2.4 µM (active)

O=C(CCl)N1CCCC1c1ccc2c(c1)OCCO2 (stereo unspecified)
IC50 (Jurkat): 1.39 µM (active)
IC50 [5]: > 80 µM (inactive)
EC50 (Protein RecA): > 380 µM (inconclusive)
AC50 [6]: 12.2 µM (active)
EC50 [3]: 14 µM (active)
CC50 [7]: 11.6 µM (active)
EC50 [4]: 29.6 µM (active)
EC50 [8]: 1.14 µM (active)
EC50 (H4): > 120 µM (not active)

COc1ccc(C(=O)NC2CCCc3c2cnn3-c2cccc(C)c2C)c(OC)n1 (stereo unspecified)
AC50 [9]: 1.96 µM (active)
AC50 [10]: > 70 µM (inactive)
AC50 [11]: 3.27 µM (active)
AC50 (HEK293 [12]): 17.5 µM (active)
CC50 (Vero [13]): > 25 µM (active)
IC50 (Vero [14]): 3.8 µM (active)

O=C1Nc2ccccc2C1=Nc1ccc(F)cc1
EC50 (Beta-galactosidase): > 40 µM (inactive)
IC50 [15]: 24.4 µM (not active)

CS(=O)(=O)N1CCc2cc(C(=O)Nc3ccccc3Cl)ccc21
IC50 (HEK293 [1]): > 67.5 µM (inactive)
IC50 [2]: > 67.5 µM (inactive)

CCc1ccc(-c2nc(C[S+]([O-])CC(=O)NCc3ccco3)c(C)o2)cc1 (stereo unspecified)
IC50 (Jurkat): 44.1 µM (inactive)
IC50 [5]: > 80 µM (inactive)

Nc1c(-c2ccc(Cl)cc2)cnc2c(-c3ccccc3)cnn12
IC50 (HEK293 [1]): > 67.5 µM (inactive)
IC50 [2]: > 67.5 µM (inactive)

Cc1ccnc(SCc2cc(=O)c(OC(=O)c3ccco3)co2)n1
IC50 [16]: 15.8 µM (active)

O=C(Cc1ccc(F)cc1)OCC(=O)c1cc2ccccc2o1
EC50 (Beta-galactosidase): > 40 µM (inactive)
IC50 [15]: 23.9 µM (not active)

CCCCCn1c(=O)[nH]c2cc(C(=O)NCCCN3CCCCC3C)ccc2c1=O (stereo unspecified)
IC50 [16]: 14.5 µM (active)

c1ccc2c(c1)ccc1[nH]c3c(c12)CCCC3
CC50 (Vero [13]): > 25 µM (active)
IC50 (Vero [14]): 3.39 µM (active)

O=C(C=Cc1ccccc1)c1cnc2ccccc2c1O
CC50 (Vero [13]): 11 µM (active)
IC50 (Vero [14]): > 25 µM (active)
